# In ChEMBL document CHEMBL5338719, “Recent advance on pleiotropic cholinesterase inhibitors bearing amyloid modulation efficacy” (Eur J Med Chem, 2022):
# Legend:
# [1] = target: T1, Amyloid-beta precursor protein (Homo sapiens, UniProt P05067); assay: Inhibition of amyloid beta 42 (unknown origin) self aggregation at 10 uM relative to control
# Acetylcholinesterase [2] = target: T2, Acetylcholinesterase (Homo sapiens, UniProt P22303); assay: Inhibition of human erythrocyte AChE using […] as substrate preincubated for 5 mins followed by substrate addition measured Ellmans method
# T2 sequence (P22303 whole entry): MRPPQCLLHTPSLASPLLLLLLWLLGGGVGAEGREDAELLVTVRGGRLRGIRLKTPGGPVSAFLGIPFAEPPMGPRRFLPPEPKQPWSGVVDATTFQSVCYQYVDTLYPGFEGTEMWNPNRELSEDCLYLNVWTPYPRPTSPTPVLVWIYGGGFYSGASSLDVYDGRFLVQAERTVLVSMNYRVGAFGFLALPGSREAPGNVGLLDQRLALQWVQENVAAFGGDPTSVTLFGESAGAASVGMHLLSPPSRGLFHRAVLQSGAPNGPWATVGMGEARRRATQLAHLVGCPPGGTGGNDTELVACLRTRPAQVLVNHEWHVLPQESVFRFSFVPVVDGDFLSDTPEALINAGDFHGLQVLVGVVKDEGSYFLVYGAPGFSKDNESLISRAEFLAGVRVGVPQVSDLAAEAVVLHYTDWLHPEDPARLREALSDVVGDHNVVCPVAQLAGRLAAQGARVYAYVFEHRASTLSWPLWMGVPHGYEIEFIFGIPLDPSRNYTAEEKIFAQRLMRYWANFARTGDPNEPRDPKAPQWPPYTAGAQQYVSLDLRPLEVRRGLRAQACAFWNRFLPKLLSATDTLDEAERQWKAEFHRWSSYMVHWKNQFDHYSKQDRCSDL
# [3] = target: T1, Amyloid-beta precursor protein; assay: Inhibition of amyloid beta 42 (unknown origin) aggregation at 50 uM by Thioflavin T-based fluorescence assay relative to control
# Acetylcholinesterase [4] = target: T2, Acetylcholinesterase; assay: Inhibition of human recombinant AChE by spectrophotometer based Ellman's method
# [5] = target: T1, Amyloid-beta precursor protein; assay: Inhibition of amyloid beta 42 (unknown origin) aggregation at 50 uM for 24 hrs by thioflavin T fluorescence method relative to control
# Beta-secretase 1 [6] = target: T3, Beta-secretase 1 (Homo sapiens, UniProt P56817); assay: Inhibition of BACE1 (unknown origin)
# T3 sequence (P56817 whole entry): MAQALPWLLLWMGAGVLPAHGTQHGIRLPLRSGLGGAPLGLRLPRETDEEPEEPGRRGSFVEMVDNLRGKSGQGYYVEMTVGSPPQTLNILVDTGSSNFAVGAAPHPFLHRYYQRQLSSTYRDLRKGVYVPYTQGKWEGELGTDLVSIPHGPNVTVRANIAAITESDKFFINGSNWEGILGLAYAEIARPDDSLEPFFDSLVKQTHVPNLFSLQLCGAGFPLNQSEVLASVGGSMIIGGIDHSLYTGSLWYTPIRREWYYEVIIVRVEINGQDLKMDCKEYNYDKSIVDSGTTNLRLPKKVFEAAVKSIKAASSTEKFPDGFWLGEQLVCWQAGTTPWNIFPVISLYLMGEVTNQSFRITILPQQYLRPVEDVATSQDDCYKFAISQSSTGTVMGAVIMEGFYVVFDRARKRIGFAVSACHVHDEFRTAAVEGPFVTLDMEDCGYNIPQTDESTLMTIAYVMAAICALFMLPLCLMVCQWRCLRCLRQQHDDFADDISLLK
# Cholinesterase [7] = target: T4, Cholinesterase (Homo sapiens, UniProt P06276); assay: Inhibition of human BChE
# T4 sequence (P06276 whole entry): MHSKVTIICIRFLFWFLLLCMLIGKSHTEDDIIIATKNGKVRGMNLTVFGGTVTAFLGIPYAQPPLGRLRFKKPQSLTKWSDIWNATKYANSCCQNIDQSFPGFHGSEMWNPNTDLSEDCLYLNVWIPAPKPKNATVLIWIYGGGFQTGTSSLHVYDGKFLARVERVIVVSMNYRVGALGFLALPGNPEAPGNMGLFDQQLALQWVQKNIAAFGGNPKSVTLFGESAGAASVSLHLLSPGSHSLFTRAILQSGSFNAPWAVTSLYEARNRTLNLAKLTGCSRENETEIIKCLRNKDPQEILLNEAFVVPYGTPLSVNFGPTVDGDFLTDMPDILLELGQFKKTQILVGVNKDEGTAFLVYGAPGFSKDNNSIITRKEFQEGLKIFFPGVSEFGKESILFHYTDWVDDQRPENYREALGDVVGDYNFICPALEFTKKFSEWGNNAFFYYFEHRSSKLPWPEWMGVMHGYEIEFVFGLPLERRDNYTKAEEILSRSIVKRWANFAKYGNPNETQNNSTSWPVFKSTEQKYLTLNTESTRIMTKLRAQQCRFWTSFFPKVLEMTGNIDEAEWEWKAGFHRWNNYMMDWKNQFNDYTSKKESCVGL
# [8] = target: T1, Amyloid-beta precursor protein; assay: Inhibition of amyloid beta 1 to 42 (unknown origin) self aggregation at 50 uM for 24 hrs by ThT fluorometric assay relative to control
# [9] = target: Microtubule-associated protein tau (Homo sapiens) (UniProt P10636); assay: Inhibition of tau (306 to 336 residue) (unknown origin) aggregation at 50 uM incubated overnight by ThT fluorometric assay relative to control
# Sequence of Microtubule-associated protein tau (Homo sapiens) (P10636 whole entry): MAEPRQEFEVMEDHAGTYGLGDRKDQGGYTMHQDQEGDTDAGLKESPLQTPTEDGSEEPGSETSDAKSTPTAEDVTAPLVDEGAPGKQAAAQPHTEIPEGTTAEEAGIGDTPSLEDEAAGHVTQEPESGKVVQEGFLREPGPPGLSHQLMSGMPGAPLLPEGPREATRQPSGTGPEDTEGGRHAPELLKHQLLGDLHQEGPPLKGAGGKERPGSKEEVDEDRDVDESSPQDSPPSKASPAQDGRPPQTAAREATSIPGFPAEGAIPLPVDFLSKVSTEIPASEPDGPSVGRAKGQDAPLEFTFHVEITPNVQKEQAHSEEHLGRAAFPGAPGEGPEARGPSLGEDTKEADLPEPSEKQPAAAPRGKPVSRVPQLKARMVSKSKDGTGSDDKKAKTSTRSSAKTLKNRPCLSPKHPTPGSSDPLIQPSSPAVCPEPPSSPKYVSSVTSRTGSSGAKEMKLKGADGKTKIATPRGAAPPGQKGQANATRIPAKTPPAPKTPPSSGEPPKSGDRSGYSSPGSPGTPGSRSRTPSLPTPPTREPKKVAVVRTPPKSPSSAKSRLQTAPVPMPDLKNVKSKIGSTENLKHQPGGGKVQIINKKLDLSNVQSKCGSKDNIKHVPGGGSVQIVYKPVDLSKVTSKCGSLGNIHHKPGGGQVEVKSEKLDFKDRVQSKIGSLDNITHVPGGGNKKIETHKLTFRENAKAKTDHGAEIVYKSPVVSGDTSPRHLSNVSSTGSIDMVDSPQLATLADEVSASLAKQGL
# Cholinesterase [10] = target: T4, Cholinesterase; assay: Inhibition of human […] BChE using BTC iodide as substrate preincubated for 5 mins followed by substrate addition measured Ellmans method
# Acetylcholinesterase [11] = target: T2, Acetylcholinesterase; assay: Inhibition of human erythrocyte AChE using ATC iodide as substrate preincubated for 5 mins followed by substrate addition measured Ellmans method
# [12] = target: T1, Amyloid-beta precursor protein; assay: Inhibition of amyloid beta 42 (unknown origin) aggregation at 25 uM relative to control
# [13] = target: T1, Amyloid-beta precursor protein; assay: Inhibition of amyloid beta 42 (unknown origin) aggregation at 100 uM relative to control
# Acetylcholinesterase [14] = target: T2, Acetylcholinesterase; assay: Inhibition of human AChE
# Acetylcholinesterase [15] = target: T2, Acetylcholinesterase; assay: Inhibition of human recombinant AChE preincubated for 5 mins followed by substrate addition measured every 2 mins by Ellmans method
# Cholinesterase [16] = target: T4, Cholinesterase; assay: Inhibition of human recombinant BChE by Ellmans method preincubated for 5 mins followed by substrate addition measured every 2 mins
# [17] = target: T1, Amyloid-beta precursor protein; assay: Inhibition of amyloid beta 42 (unknown origin) self aggregation incubated for 48 hrs by fluoroMax-4 spectrofluorometeric analysis
# Acetylcholinesterase [18] = target: T5, Acetylcholinesterase (Electrophorus electricus, UniProt O42275); assay: Inhibition of electric eel AChE
# T5 sequence (O42275 whole entry): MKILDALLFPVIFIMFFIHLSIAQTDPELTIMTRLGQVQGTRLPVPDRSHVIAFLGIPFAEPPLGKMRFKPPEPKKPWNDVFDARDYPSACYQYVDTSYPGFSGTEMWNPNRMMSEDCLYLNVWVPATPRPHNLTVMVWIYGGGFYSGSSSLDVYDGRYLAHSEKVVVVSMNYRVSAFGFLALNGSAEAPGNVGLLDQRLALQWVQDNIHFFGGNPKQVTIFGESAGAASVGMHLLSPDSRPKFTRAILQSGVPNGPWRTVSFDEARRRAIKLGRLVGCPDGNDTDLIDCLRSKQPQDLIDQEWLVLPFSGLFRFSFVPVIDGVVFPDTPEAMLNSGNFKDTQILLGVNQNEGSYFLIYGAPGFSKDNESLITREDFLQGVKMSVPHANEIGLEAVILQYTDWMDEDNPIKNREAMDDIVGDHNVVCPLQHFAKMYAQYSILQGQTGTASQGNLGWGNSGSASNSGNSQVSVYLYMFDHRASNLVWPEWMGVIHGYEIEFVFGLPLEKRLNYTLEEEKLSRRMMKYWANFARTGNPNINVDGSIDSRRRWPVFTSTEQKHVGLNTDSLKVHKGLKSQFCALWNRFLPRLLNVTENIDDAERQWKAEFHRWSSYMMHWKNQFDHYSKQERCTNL
# [19] = target: T1, Amyloid-beta precursor protein; assay: Inhibition of amyloid beta 1 to 42 (unknown origin) aggregation at 10 uM for 24 hrs by ThT fluorometric assay relative to control
# Acetylcholinesterase [20] = target: Acetylcholinesterase (Torpedo californica, UniProt P04058); assay: Inhibition of pacific electric ray AChE incubated for 15 mins; parameters: species or system Tetronarce californica
# Sequence of Acetylcholinesterase (Torpedo californica, UniProt P04058) (P04058 whole entry): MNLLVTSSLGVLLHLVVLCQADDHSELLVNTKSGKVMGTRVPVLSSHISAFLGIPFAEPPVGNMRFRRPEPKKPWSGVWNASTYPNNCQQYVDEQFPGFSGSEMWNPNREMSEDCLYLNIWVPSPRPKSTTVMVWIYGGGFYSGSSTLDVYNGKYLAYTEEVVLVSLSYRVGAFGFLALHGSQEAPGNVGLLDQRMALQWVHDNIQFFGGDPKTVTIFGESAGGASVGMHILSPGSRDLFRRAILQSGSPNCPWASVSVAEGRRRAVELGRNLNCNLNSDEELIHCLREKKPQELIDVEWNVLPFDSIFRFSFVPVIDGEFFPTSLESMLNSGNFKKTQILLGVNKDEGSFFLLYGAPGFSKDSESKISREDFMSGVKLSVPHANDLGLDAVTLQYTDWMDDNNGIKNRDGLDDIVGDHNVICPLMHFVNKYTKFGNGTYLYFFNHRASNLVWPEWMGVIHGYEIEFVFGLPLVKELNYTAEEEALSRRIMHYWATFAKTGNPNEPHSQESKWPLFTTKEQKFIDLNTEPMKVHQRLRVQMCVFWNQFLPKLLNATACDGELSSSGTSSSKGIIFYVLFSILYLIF
# [21] = target: T1, Amyloid-beta precursor protein; assay: Inhibition of amyloid beta 42 (unknown origin) self aggregation at 80 uM incubated for 24 hrs by fluoroscence emission relative to control
# [22] = target: T1, Amyloid-beta precursor protein; assay: Inhibition of amyloid beta 42 (unknown origin) fibrillization at 44 uM relative to control
# Acetylcholinesterase [23] = target: T5, Acetylcholinesterase; assay: Inhibition of electric eel AChE incubated for 15 mins by Ellman's method
# Cholinesterase [24] = target: T6, Cholinesterase (Equus caballus, UniProt P81908); assay: Inhibition of equine BChE incubated for 15 mins by Ellman's method
# T6 sequence (P81908 whole entry): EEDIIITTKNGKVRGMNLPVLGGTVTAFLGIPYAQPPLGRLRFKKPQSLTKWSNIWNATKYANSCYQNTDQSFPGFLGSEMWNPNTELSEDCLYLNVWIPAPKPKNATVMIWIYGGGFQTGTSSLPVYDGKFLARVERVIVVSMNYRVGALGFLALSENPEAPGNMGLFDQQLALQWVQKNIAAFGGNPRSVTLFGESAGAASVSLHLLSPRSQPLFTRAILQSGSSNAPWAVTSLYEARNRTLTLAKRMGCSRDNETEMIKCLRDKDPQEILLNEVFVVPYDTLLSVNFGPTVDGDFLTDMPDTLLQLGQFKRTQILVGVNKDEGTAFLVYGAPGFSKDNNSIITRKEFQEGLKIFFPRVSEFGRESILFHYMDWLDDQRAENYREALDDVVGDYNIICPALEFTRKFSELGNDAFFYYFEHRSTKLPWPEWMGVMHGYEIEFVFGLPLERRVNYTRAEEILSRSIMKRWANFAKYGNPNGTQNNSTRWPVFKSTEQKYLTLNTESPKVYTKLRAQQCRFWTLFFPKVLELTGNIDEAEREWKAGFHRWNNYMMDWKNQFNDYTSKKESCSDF
# Beta-secretase 1 [25] = target: T3, Beta-secretase 1; assay: Inhibition of BACE1 (unknown origin) expressed in purified baculovirus using RhEVNLDAEFK-Quencher as substrate incubated at 50 uM for 90 mins in dark relative to control
# Cholinesterase [26] = target: T6, Cholinesterase; assay: Inhibition of equine BChE using butyrylthiocholine iodide incubated for 3 mins by Ellman's method
# Cholinesterase [27] = target: T4, Cholinesterase; assay: Inhibition of human BChE by Ellmans method
# Acetylcholinesterase [28] = target: T2, Acetylcholinesterase; assay: Inhibition of human AChE by Ellmans method
# Beta-secretase 1 [29] = target: T3, Beta-secretase 1; assay: Inhibition of BACE1 (unknown origin) by FRET-based fluorescent analysis
# T1 sequence (P05067 whole entry): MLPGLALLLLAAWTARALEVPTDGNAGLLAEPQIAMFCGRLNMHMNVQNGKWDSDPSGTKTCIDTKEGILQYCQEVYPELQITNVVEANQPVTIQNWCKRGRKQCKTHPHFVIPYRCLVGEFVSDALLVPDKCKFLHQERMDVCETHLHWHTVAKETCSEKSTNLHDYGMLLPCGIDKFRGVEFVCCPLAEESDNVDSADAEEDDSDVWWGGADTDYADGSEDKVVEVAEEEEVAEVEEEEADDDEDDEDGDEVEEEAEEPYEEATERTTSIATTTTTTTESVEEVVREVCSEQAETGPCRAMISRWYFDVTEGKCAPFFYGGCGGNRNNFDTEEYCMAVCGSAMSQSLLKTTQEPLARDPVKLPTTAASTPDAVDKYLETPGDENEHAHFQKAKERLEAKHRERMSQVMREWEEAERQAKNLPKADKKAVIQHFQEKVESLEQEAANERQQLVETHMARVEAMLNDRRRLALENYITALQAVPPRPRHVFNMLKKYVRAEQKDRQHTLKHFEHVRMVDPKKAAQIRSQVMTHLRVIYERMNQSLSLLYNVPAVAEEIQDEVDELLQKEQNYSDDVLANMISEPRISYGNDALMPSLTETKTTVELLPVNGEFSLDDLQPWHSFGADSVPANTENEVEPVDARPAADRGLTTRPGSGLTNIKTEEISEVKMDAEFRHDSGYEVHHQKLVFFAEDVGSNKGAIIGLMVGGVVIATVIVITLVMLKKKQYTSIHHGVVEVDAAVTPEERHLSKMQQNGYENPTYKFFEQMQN
smiles,measurement,setting,value
CN(C)CCN1CCN(c2ccc(C(=O)/C=C/c3cc4ccccc4o3)cc2)CC1,inhibition,[1],94.6%
O=c1nc2sc3ccccc3n2c2ncccc12,IC50,Acetylcholinesterase [2],2.78 µM
same,inhibition,[3],30.8%
CC1=C(NC2CCN(Cc3ccccc3)CC2)C(=O)c2ccccc2C1=O,IC50,Acetylcholinesterase [4],47.5 µM
same,inhibition,[5],52%
N=c1oc2ccccc2cc1C(=O)Nc1cc(Br)ccc1N1CCN(Cc2ccc(F)cc2)CC1,IC50,Beta-secretase 1 [6],6.31 µM
same,IC50,Cholinesterase [7],10.5 µM
CCOC(=O)C1=C(C)N(CCC2CCN(Cc3ccccc3)CC2)C(=O)NC1c1coc2c(Cl)cc(Cl)cc2c1=O (stereo not drawn),inhibition,[8],63.6%
same,inhibition,[9],73.7%
same,IC50,Cholinesterase [10],17.3 µM
same,IC50,Acetylcholinesterase [11],0.06 µM
O=C(CCCN(Cc1ccccn1)Cc1ccccn1)NCCCNc1c2c(nc3ccccc13)CCCC2,inhibition,[12],71.1%
COC(=O)c1cc(C(=O)c2ccc(OC)cc2)n2ccc(CCCc3cc[n+](C)cc3)cc12,inhibition,[13],55%
same,IC50,Acetylcholinesterase [14],3.3 µM
same,IC50,Cholinesterase [7],38.9 µM
O=C(NCCCNc1c2c(nc3cc(Cl)ccc13)CCCC2)c1nc2ccc([N+](=O)[O-])cc2s1,IC50,Acetylcholinesterase [15],0.018 µM
same,IC50,Cholinesterase [16],4660 µM
same,IC50,[17],3.8 µM
COC(=O)C(C)c1ccc(-c2ccc(C(=O)/C=C/c3ccc(CN4CCCC4)c(O)c3)cc2)c(F)c1 (stereo not drawn),inhibition,[12],70.7%
same,IC50,Acetylcholinesterase [18],7.15 µM
O=S(=O)(NCC1CCN(Cc2ccccc2)CC1)c1ccc(-c2ccccc2)cc1,inhibition,[19],60.7%
COc1ccc(C(=O)CCC(=O)NCCCNc2c3c(nc4ccccc24)CCCC3)c2ccccc12,IC50,Acetylcholinesterase [20],0.12 µM
same,inhibition,[21],70.5%
COC(=O)[C@H]1[C@H]2C[C@@H]3c4[nH]c5cc(OC)ccc5c4CCN3C[C@H]2C[C@@H](OC(=O)c2cc(OC)c(OC)c(OC)c2)[C@@H]1OC [RESERPINE],inhibition,[22],68%
same,IC50,Acetylcholinesterase [14],1.7 µM
same,IC50,Cholinesterase [7],2.8 µM
O=C(NC1CCN(Cc2ccccc2)CC1)c1cc(-c2cccc([N+](=O)[O-])c2)on1,IC50,Acetylcholinesterase [23],16.1 µM
same,IC50,Cholinesterase [24],15.2 µM
same,inhibition,Beta-secretase 1 [25],24.3%
O=C(CCCCC1CCSS1)NCc1cn(CCCCOc2ccc3c(=O)ccoc3c2)nn1 (stereo not drawn),IC50,Cholinesterase [26],7.5 µM
FC(F)(F)c1ccc(-c2nnc(CNC3CCN(Cc4ccccc4)C3)o2)cc1 (stereo not drawn),IC50,Cholinesterase [27],0.074 µM
same,IC50,Acetylcholinesterase [28],0.064 µM
same,IC50,Beta-secretase 1 [29],0.143 µM
